From PubChem BioAssay AID1963426 (Molecular Pharmacology Branch, DTP, NCI, 2024)

Test system: 186277-243-T-J2-PDC complex spheroid growth, % test/control
Experiment: Anticancer human tumor 186277-243-T-J2-PDC patient-derived colon adenocarcinoma cell line growth inhibition [Asc]
Conditions: for IC50: curve of first compound; for viability, T/C: stronger effect = lower value; active = viability on the fitted dose curve at most 10% of control; inactive = the rest
Summary of the method: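 Concentration series start at each agent's clinical Cmax, or at 10 microM when none is established, and drop in half-log steps; agents are applied alone or together to complex spheroids built with HUVEC and hMSC.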
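Note: spheroids exposed to agents for 7 days.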
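Throughout, for viability, T/C: 100% = DMSO vehicle control wells.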

C=CC(=O)N1CCN(c2nc(=O)n(-c3c(C)ccnc3C(C)C)c3nc(-c4c(O)cccc4F)c(F)cc23)C(C)C1 (stereo not given) + CNC(C)C(=O)NC1CN(S(=O)(=O)c2cccc(S(=O)(=O)N3CCC4CCC(C(=O)NC(c5ccccc5)c5ccccc5)N4C(=O)C(NC(=O)C(C)NC)C3)c2)CCC2CCC(C(=O)NC(c3ccccc3)c3ccccc3)N2C1=O
inactive: viability, T/C (second compound 0.01 µM, first compound 0.0316 µM) 102% | viability, T/C (second compound 0.01 µM, first compound 0.1 µM) 114% | viability, T/C (second compound 0.01 µM, first compound 0.316 µM) 117% | viability, T/C (second compound 0.01 µM, first compound 1 µM) 100% | viability, T/C (second compound 0.01 µM, first compound 3.16 µM) 112% | viability, T/C (second compound 0.01 µM, first compound 10 µM) 104% | viability, T/C (second compound 0.0316 µM, first compound 0.0316 µM) 118% | viability, T/C (second compound 0.0316 µM, first compound 0.1 µM) 104% | viability, T/C (second compound 0.0316 µM, first compound 0.316 µM) 122% | viability, T/C (second compound 0.0316 µM, first compound 1 µM) 116% | viability, T/C (second compound 0.0316 µM, first compound 3.16 µM) 100% | viability, T/C (second compound 0.0316 µM, first compound 10 µM) 108% | viability, T/C (second compound 0.1 µM, first compound 0.0316 µM) 124% | viability, T/C (second compound 0.1 µM, first compound 0.1 µM) 108% | viability, T/C (second compound 0.1 µM, first compound 0.316 µM) 124% | viability, T/C (second compound 0.1 µM, first compound 1 µM) 114% | viability, T/C (second compound 0.1 µM, first compound 3.16 µM) 122% | viability, T/C (second compound 0.1 µM, first compound 10 µM) 113% | viability, T/C (second compound 0.316 µM, first compound 0.0316 µM) 124% | viability, T/C (second compound 0.316 µM, first compound 0.1 µM) 118% | viability, T/C (second compound 0.316 µM, first compound 0.316 µM) 120% | viability, T/C (second compound 0.316 µM, first compound 1 µM) 130% | viability, T/C (second compound 0.316 µM, first compound 3.16 µM) 112% | viability, T/C (second compound 0.316 µM, first compound 10 µM) 110% | viability, T/C (second compound 1 µM, first compound 0.0316 µM) 112% | viability, T/C (second compound 1 µM, first compound 0.1 µM) 124% | viability, T/C (second compound 1 µM, first compound 0.316 µM) 109% | viability, T/C (second compound 1 µM, first compound 1 µM) 106% | viability, T/C (second compound 1 µM, first compound 3.16 µM) 127% | viability, T/C (second compound 1 µM, first compound 10 µM) 118%
> 10 µM: IC50 (second compound 0.01 µM) | IC50 (second compound 0.0316 µM) | IC50 (second compound 0.1 µM) | IC50 (second compound 0.316 µM) | IC50 (second compound 1 µM)
